Literature values, collected in patent publication US20230330238A1, “CHIMERIC CONJUGATES FOR DEGRADATION OF VIRAL AND HOST PROTEINS AND METHODS OF USE” (Dana-Farber Cancer Institute, Inc., priority 2020, published 2023).

Details: FIG. 8A, identical to FIG. 1C in Bernal F., et al. 2007; cited from earlier work

Substance: LSQETF(R8)DLWKLL(S5)EN [SAH-p53-4]
- α-helical stabilization (helicity by circular dichroism): more stable than SAH-p53-1-3
